In patent publication US20010000786A1, “Product for promoting weight loss in overweight dogs” (priority 1998, published 2001):

How the values were obtained:
overweight dogs [1] = assay: Whole body composition by Dual Energy X-ray Absorptiometry (DEXA); type: in vivo, beagle dogs
Text: (§1) Thirty adult ovariohysterectomized female beagle dogs were used to study the effects of L-carnitine supplementation on weight loss. All of the animals were current on their vaccination and parasite prevention program. The dogs were housed individually in oversize pens and identified by a unique ear tattoo. Fresh water was provided ad libitum during the entire study period. Food intake was adjusted as necessary to achieve the desired weight for the study period.
(§2) At the initiation of the maintenance phase of the study (baseline or day 0), the dogs were randomized based on body weight into three dietary treatment groups of ten dogs each with a three day feed transition period starting on day 0. Each treatment group was randomly assigned to one of three low-fat diets (Table 1). The only difference between diets was the addition of 0, 50, or 100 ppm supplemental L-carnitine. No differences in the initial body weight or body condition score existed between groups.
(§3) During the twelve-week weight loss phase of the study, the same experimental diets were offered as during the maintenance phase. However, the food intake was decreased to produce approximately 1.5 to 2.5% body weight loss per week. Exact amounts of experimental diets were fed to the dogs at approximately the same time each day, and remaining feed amounts were weighed the following day. Food intake and body weight were monitored daily and weekly, respectively. Whole body composition using the Dual Energy X-ray Absorptiometer (DEXA), and blood samples for CBC and chemistry were collected periodically during the study. Whole Body Composition by Dual Energy X-ray Absorptiometry. The dogs were scanned with a Hologic QDR-2000 Plus Dual-Energy X-Ray Absorptiometry (DEXA) bone densitometer, supported with Hologic MXA software, version 8.0. All dogs were anesthetized and placed on the Dual Energy X-ray Absorptiometry (DEXA) table in dorsal recumbency, with legs stretched caudally to avoid overlap of the legs over the body. The dogs were scanned using the Enhanced Array Whole Body software. The body composition measurements recorded consisted of surface area (cm^2), bone mineral content (BMC), bone mineral density (BMD), lean mass, fat content, percent fat, and estimated body weight. All measurements were reported in grams except for percent fat and area (cm^2). Percent lean and percent BMC were calculated from the lean mass, BMC, and estimated body weight data from the DEXA results.
The whole body composition was performed concomitantly and under anesthesia. The anesthetic regimen consisted of Atropine (0.01 mg/lb) as a pre-anesthetic, the combination Xylazine/Telazol/Torbugesic (0.8/6.7/0.13 mg/kg) as induction and Isoflurane (Aerrane, Ohmeda Pharmaceutical Products, Liberty Corner, N.J.) as a maintenance agent using a nose cone.
A repeated measure classification analysis of variance was used to study “Treatment” and time dependent “Treatment×Time” effects (Gill and Hafs, J. Animal Sci. 33(2):331(1971)). The variables from the complete blood count, blood chemistry, body composition and body weights were studied using this analysis. All F-tests and mean separations using the Least Square Difference (LSD) used 0.05 Type 1 Error rate. One degree of freedom comparisons between experimental diets B versus C (comparison 1) and A versus B and C (comparison 2) were computed for the body composition and body weight variables. Comparisons 1 and 2 form an orthogonal set. An a of 0.05 was used to test for non-zero value of the mean of the two groups defined per contract. The “Treatment×Time” interaction was investigated by computing a test for linear, quadratic, and cubic response over time for each treatment. Then a test of parallelism, equal quadric response and equal cubic response was done to test equality of trend in response among treatments. An α of 0.05 for the F-tests was used in all cases. All computations were done using SAS (statistical analysis system) software (1989).

overweight dogs [2] = assay: Body weight and food intake of overweight dogs fed low-fat diets with supplemental L-carnitine; type: in vivo, beagle dogs; conditions: for average voluntary consumption of the diet: seven weeks of feeding; for body weight change: seven weeks ad libitum, P<0.05 from control
Text: as §1
Three dietary treatments were evaluated. The study consisted of three periods: weight gain, maintenance, and weight loss. During the eleven-week weight gain period, all dogs were fed a single diet Eukanuba Veterinary Diets® Nutritional Recovery Formula™ which contains 36.1 wt % protein, 26.1 wt % fat, and 2.1 wt % crude fiber) ad libitum.
as §2
The dogs were on 100% experimental diet on day 3 and were fed ad libitum during the seven-week maintenance phase of the study.
as §3
A repeated measure classification analysis of variance was used to study “Treatment” and time dependent “Treatment×Time” effects (Gill and Hafs, J. Animal Sci. 33(2):331(1971)). The variables from the complete blood count, blood chemistry, body composition and body weights were studied using this analysis. All F-tests and mean separations using the Least Square Difference (LSD) used 0.05 Type 1 Error rate. […]

[3] = 50 ppm supplemental carnitine, Week 0
[4] = 50 ppm supplemental carnitine, Week 7
[5] = 100 ppm supplemental carnitine, Week 0
[6] = 100 ppm supplemental carnitine, Week 7

SMILES: C[N+](C)(C)C[C@H](O)CC(=O)[O-] [L-carnitine]
- lean body mass compared with no supplementation (overweight dogs [1]; 50 and 100 ppm, FIG. 6): leaner body mass
- body fat loss compared to no (0 ppm) supplementation (overweight dogs [1]; 50 and 100 ppm, difference day 0 to day 49, day 92, day 133 as percentage of day 0, FIG. 5): more body fat loss (P<0.05)
- body fat loss compared to 0 ppm supplementation (overweight dogs [1]; 50 and 100 ppm, difference day 0 to day 49 as percentage of day 0, FIG. 4): more body fat loss (P<0.05)
- BMC (bone mineral content) as percent of total body mass (overweight dogs [1]; [3]): 1.6%
- Fat mass as percent of total body mass (overweight dogs [1]; [3]): 42.4%
- LBM (lean body mass) as percent of total body mass (overweight dogs [1]; [3]): 56.0%
- BMC (bone mineral content) as percent of total body mass (overweight dogs [1]; [4]): 1.7%
- Fat mass as percent of total body mass (overweight dogs [1]; [4]): 37.8%
- LBM (lean body mass) as percent of total body mass (overweight dogs [1]; [4]): 60.5%
- BMC (bone mineral content) as percent of total body mass (overweight dogs [1]; [5]): 1.6%
- Fat mass as percent of total body mass (overweight dogs [1]; [5]): 42.5%
- LBM (lean body mass) as percent of total body mass (overweight dogs [1]; [5]): 55.9%
- BMC (bone mineral content) as percent of total body mass (overweight dogs [1]; [6]): 1.6%
- Fat mass as percent of total body mass (overweight dogs [1]; [6]): 38.9%
- LBM (lean body mass) as percent of total body mass (overweight dogs [1]; [6]): 59.5%
- total weight loss per total food intake compared with no supplementation (overweight dogs [2]; 50 and 100 ppm, FIG. 7, P<0.05): greater total weight loss per total food intake
- average voluntary consumption of the diet (overweight dogs [2]; 50 ppm carnitine): 1574 g/week
- body weight change (overweight dogs [2]; 50 ppm supplemental carnitine in low-fat diet): −6.4%
- average voluntary consumption of the diet (overweight dogs [2]; 100 ppm carnitine): 1567 g/week
- body weight change (overweight dogs [2]; 100 ppm supplemental carnitine in low-fat diet): −5.7%
